Read-outs that look alike come from different tables or passages of the source. Numbered stars: 1 amine (or outer) side, 2 acyl side, 3 side chain; on linkers, the order of the positions; unused ones are H or OH. Bridge positions count the residues as written; N and C are the ends. Square brackets hold non-standard residues; d marks the D form. Peptide text beside a SMILES is read from it. * marks the point of attachment. C20 diacid = O=C(O)CCCCCCCCCCCCCCCCCCC(=O)*; γGlu = O=C(O)[C@H](CCC(=O)[*:2])N[*:1]; NMeI = CC[C@H](C)[C@H](NC)C(=O)O; Orn = NCCC[C@H](N)C(=O)O; Dab = NCC[C@H](N)C(=O)O; Dap = NC[C@H](N)C(=O)O; Sar = CNCC(=O)O
Key:
[1] = biological target: T1, human calcitonin receptor (hCTR2) (Homo sapiens, UniProt P30988); experiment: hCTR2 assay: induction of cAMP (AlphaScreen cAMP Assay kit) in COS7 cells expressing hCTR2; assay type: cell-based
T1 construct: expressed in transfected cells
T1 sequence (P30988 25-474): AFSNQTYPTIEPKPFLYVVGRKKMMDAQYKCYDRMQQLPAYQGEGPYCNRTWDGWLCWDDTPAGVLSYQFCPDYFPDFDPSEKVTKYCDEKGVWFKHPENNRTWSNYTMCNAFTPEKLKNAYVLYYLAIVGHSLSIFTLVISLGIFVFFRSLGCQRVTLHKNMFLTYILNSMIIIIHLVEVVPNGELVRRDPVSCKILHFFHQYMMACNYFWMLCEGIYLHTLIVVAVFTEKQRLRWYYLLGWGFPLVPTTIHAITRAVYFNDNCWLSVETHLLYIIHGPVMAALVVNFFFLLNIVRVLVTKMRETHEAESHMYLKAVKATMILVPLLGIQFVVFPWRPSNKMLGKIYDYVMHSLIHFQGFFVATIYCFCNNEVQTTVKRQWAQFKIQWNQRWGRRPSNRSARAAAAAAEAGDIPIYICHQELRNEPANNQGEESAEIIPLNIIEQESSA
Summary of the method: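 COS7 stable hCTR2 clone (RAMP-free); peptide dose-response 15 min 37° C in Tyrode pH 7.4 + 100 µM IBMX + 0.1% casein; lysis 10 min RT; AlphaScreen cAMP; 4PL fit.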

[2] = Solubility assessment (turbidity absorbance at 325 nm); assay type: physicochemical; settings: stock 2 mg/ml diluted 1:1, ambient temperature (typically 25°C), n=1; for Solubility, Acetate buffer pH 4: 100 mM acetate buffer pH 4.0; for Solubility, Acetate buffer pH 5: 100 mM acetate buffer pH 5.0; for Solubility, Histidine buffer pH 6: 100 mM histidine buffer pH 6.0; for Solubility, Histidine buffer pH 7: 100 mM histidine buffer pH 7.0; for Solubility, Phosphate buffer pH 6: 100 mM phosphate buffer pH 6.0; for Solubility, Phosphate buffer pH 7: 100 mM phosphate buffer pH 7.0; for Solubility, Phosphate buffer pH 7.5: 100 mM phosphate buffer pH7.5
Summary of the method: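 Peptide stock (2 mg/ml, water pH 2.5) diluted 1:1 into 100 mM acetate (pH 4.0, 5.0), histidine (pH 6.0, 7.0) or phosphate (pH 6.0–7.5) buffer; absorbance at 325 nm read at about 25°C, n=1. A325 ≤ 0.02 taken as solubility ≥ 1 mg/ml.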

[3] = cAMP induction in COS7 cells expressing hCTR2, average of a minimum of 3 determinations, read-out: hCTR2 EC50

CC[C@H](C)[C@@H](C(=O)N[C@@H](CC(C)C)C(=O)N[C@@H](CO)C(=O)N[C@@H](CO)C(=O)N[C@H](C(=O)N[C@@H](CC(N)=O)C(=O)N[C@H](C(=O)NCC(=O)N[C@@H](CO)C(=O)N[C@@H](CC(N)=O)C(=O)N[C@H](C(=O)N1CCC[C@H]1C(N)=O)[C@@H](C)O)C(C)C)[C@@H](C)O)N(C)C(=O)[C@H](C)NC(=O)CN(C)C(=O)[C@H](Cc1ccccc1)NC(=O)[C@H](CC(N)=O)NC(=O)[C@H](CC(N)=O)NC(=O)[C@H](CO)NC(=O)[C@H](CO)NC(=O)[C@H](Cc1c[nH]cn1)NC(=O)[C@H](Cc1c[nH]cn1)NC(=O)[C@H](CC(C)C)NC(=O)[C@H](Cc1ccccc1)NC(=O)[C@H](CCC(=O)O)NC(=O)[C@H](C)NC(=O)[C@H](CC(C)C)NC(=O)[C@H](CCCNC(=N)N)NC(=O)[C@H](CCC(N)=O)NC(=O)[C@@H](NC(=O)[C@H](C)NC(=O)[C@@H]1CSSC[C@H](NC(=O)[C@H](CCN)NC(=O)CC[C@H](NC(=O)CCCCCCCCCCCCCCCCCCC(=O)O)C(=O)O)C(=O)N[C@@H](CC(N)=O)C(=O)N[C@@H]([C@@H](C)O)C(=O)N[C@@H](C)C(=O)N[C@@H]([C@@H](C)O)C(=O)N1)[C@@H](C)O [Compound 63, [19CD]-isoGlu-Dab-C()NTATC()ATQRLAEFLHHSSNNF-Gly(Me)-A-Ile(Me)-LSSTNVGSNTP-NH2] ({C20 diacid-γGlu}-[Dab]CNTATCATQRLAEFLHHSSNNF[Sar]A[NMeI]LSSTNVGSNTP-NH2; disulfide 2-7)
SS (SS indicates solubility ≥ 1mg/ml): Solubility, Acetate buffer pH 4 [2] | Solubility, Histidine buffer pH 6 [2] | Solubility, Histidine buffer pH 7 [2] | Solubility, Phosphate buffer pH 6 [2] | Solubility, Phosphate buffer pH 7 [2] | Solubility, Phosphate buffer pH 7.5 [2]
II (II indicates solubility ≤ 1 mg/ml): Solubility, Acetate buffer pH 5 [2]
0.2 nM: EC50 [1]

CC[C@H](C)[C@@H](C(=O)N[C@@H](CC(C)C)C(=O)N[C@@H](CO)C(=O)N[C@@H](CO)C(=O)N[C@H](C(=O)N[C@@H](CC(N)=O)C(=O)N[C@H](C(=O)NCC(=O)N[C@@H](CO)C(=O)N[C@@H](CC(N)=O)C(=O)N[C@H](C(=O)N1CCC[C@H]1C(N)=O)[C@@H](C)O)C(C)C)[C@@H](C)O)N(C)C(=O)CN(C)C(=O)[C@H](Cc1ccccc1)NC(=O)[C@H](CC(N)=O)NC(=O)[C@H](CC(N)=O)NC(=O)[C@H](CO)NC(=O)[C@H](CO)NC(=O)[C@H](Cc1c[nH]cn1)NC(=O)[C@H](Cc1c[nH]cn1)NC(=O)[C@H](CC(C)C)NC(=O)[C@H](Cc1ccccc1)NC(=O)[C@H](CCC(=O)O)NC(=O)[C@H](C)NC(=O)[C@H](CC(C)C)NC(=O)[C@H](CCCNC(=N)N)NC(=O)[C@H](CCC(N)=O)NC(=O)[C@@H](NC(=O)[C@H](C)NC(=O)[C@@H]1CSSC[C@H](NC(=O)[C@H](CCN)NC(=O)CC[C@H](NC(=O)CCCCCCCCCCCCCCCCCCC(=O)O)C(=O)O)C(=O)N[C@@H](CC(N)=O)C(=O)N[C@@H]([C@@H](C)O)C(=O)N[C@@H](C)C(=O)N[C@@H]([C@@H](C)O)C(=O)N1)[C@@H](C)O [Compound 64, [19CD]-isoGlu-Dab-C()NTATC()ATQRLAEFLHHSSNNF-Gly(Me)-Ile(Me)-LSSTNVGSNTP-NH2] ({C20 diacid-γGlu}-[Dab]CNTATCATQRLAEFLHHSSNNF[Sar][NMeI]LSSTNVGSNTP-NH2; disulfide 2-7)
II (II indicates solubility ≤ 1 mg/ml): Solubility, Acetate buffer pH 5 [2]
0.4 nM: EC50 [1, 3]
SS (SS indicates solubility ≥ 1mg/ml): Solubility, Acetate buffer pH 4 [2] | Solubility, Histidine buffer pH 6 [2] | Solubility, Histidine buffer pH 7 [2] | Solubility, Phosphate buffer pH 6 [2] | Solubility, Phosphate buffer pH 7 [2] | Solubility, Phosphate buffer pH 7.5 [2]

CC[C@H](C)[C@@H](C(=O)N[C@@H](CC(C)C)C(=O)N[C@@H](CO)C(=O)N[C@@H](CO)C(=O)N[C@H](C(=O)N[C@@H](CC(N)=O)C(=O)N[C@H](C(=O)NCC(=O)N[C@@H](CO)C(=O)N[C@@H](CC(N)=O)C(=O)N[C@H](C(=O)N1CCC[C@H]1C(N)=O)[C@@H](C)O)C(C)C)[C@@H](C)O)N(C)C(=O)CN(C)C(=O)[C@H](Cc1ccccc1)NC(=O)[C@H](CC(N)=O)NC(=O)[C@H](CC(N)=O)NC(=O)[C@H](CO)NC(=O)[C@H](CO)NC(=O)[C@H](Cc1c[nH]cn1)NC(=O)[C@H](Cc1c[nH]cn1)NC(=O)[C@H](CC(C)C)NC(=O)[C@H](Cc1ccccc1)NC(=O)[C@H](CCC(=O)O)NC(=O)[C@H](C)NC(=O)[C@H](CC(C)C)NC(=O)[C@H](CCCNC(=N)N)NC(=O)[C@H](CCC(N)=O)NC(=O)[C@@H](NC(=O)[C@H](C)NC(=O)[C@@H]1CSSC[C@H](NC(=O)[C@H](CCCN)NC(=O)CC[C@H](NC(=O)CCCCCCCCCCCCCCCCCCC(=O)O)C(=O)O)C(=O)N[C@@H](CC(N)=O)C(=O)N[C@@H]([C@@H](C)O)C(=O)N[C@@H](C)C(=O)N[C@@H]([C@@H](C)O)C(=O)N1)[C@@H](C)O [Compound 66, [19CD]-isoGlu-Orn-C()NTATC()ATQRLAEFLHHSSNNF-Gly(Me)-Ile(Me)-LSSTNVGSNTP-NH2] ({C20 diacid-γGlu}-[Orn]CNTATCATQRLAEFLHHSSNNF[Sar][NMeI]LSSTNVGSNTP-NH2; disulfide 2-7)
0.11 nM: EC50 [1, 3]
SS (SS indicates solubility ≥ 1mg/ml): Solubility, Acetate buffer pH 4 [2] | Solubility, Acetate buffer pH 5 [2] | Solubility, Histidine buffer pH 6 [2] | Solubility, Histidine buffer pH 7 [2] | Solubility, Phosphate buffer pH 6 [2] | Solubility, Phosphate buffer pH 7 [2] | Solubility, Phosphate buffer pH 7.5 [2]

CC[C@H](C)[C@@H](C(=O)N[C@@H](CC(C)C)C(=O)N[C@@H](CO)C(=O)N[C@@H](CO)C(=O)N[C@H](C(=O)N[C@@H](CC(N)=O)C(=O)N[C@H](C(=O)NCC(=O)N[C@@H](CO)C(=O)N[C@@H](CC(N)=O)C(=O)N[C@H](C(=O)N1CCC[C@H]1C(N)=O)[C@@H](C)O)C(C)C)[C@@H](C)O)N(C)C(=O)[C@H](C)NC(=O)CN(C)C(=O)[C@H](Cc1ccccc1)NC(=O)[C@H](CC(N)=O)NC(=O)[C@H](CC(N)=O)NC(=O)[C@H](CO)NC(=O)[C@H](CO)NC(=O)[C@H](Cc1c[nH]cn1)NC(=O)[C@H](Cc1c[nH]cn1)NC(=O)[C@H](CC(C)C)NC(=O)[C@H](Cc1ccccc1)NC(=O)[C@H](CCC(=O)O)NC(=O)[C@H](C)NC(=O)[C@H](CC(C)C)NC(=O)[C@H](CCCNC(=N)N)NC(=O)[C@H](CCC(N)=O)NC(=O)[C@@H](NC(=O)[C@H](C)NC(=O)[C@@H]1CSSC[C@H](NC(=O)[C@H](CN)NC(=O)CC[C@H](NC(=O)CCCCCCCCCCCCCCCCCCC(=O)O)C(=O)O)C(=O)N[C@@H](CC(N)=O)C(=O)N[C@@H]([C@@H](C)O)C(=O)N[C@@H](C)C(=O)N[C@@H]([C@@H](C)O)C(=O)N1)[C@@H](C)O [Compound 67, [19CD]-isoGlu-Dap-C()NTATC()ATQRLAEFLHHSSNNF-Gly(Me)-A-Ile(Me)-LSSTNVGSNTP-NH2] ({C20 diacid-γGlu}-[Dap]CNTATCATQRLAEFLHHSSNNF[Sar]A[NMeI]LSSTNVGSNTP-NH2; disulfide 2-7)
0.19 nM: EC50 [1]
SS (SS indicates solubility ≥ 1mg/ml): Solubility, Acetate buffer pH 4 [2] | Solubility, Acetate buffer pH 5 [2] | Solubility, Histidine buffer pH 6 [2] | Solubility, Histidine buffer pH 7 [2] | Solubility, Phosphate buffer pH 6 [2] | Solubility, Phosphate buffer pH 7 [2] | Solubility, Phosphate buffer pH 7.5 [2]
